The numbers were not newly measured in patent publication US20050232985A1, “Ciprofloxacin hcl” (priority 2002, published 2005), which cites them from elsewhere.

Series [1] relates to Excherichia Coli, Klebsiella SPP., and other Enterobacter SPP., Bacillus—negative.
In series [2] the test system is Pseudomonas aerugenosa, golden yellow Staphylococcus and Streptococcus pneumoniae.

Counter-ions that a name gives are not always drawn.

With `O=C(O)c1cn(C2CC2)c2cc(N3CCNCC3)c(F)cc2c1=O` [Ciprofloxacin Hydrochloride, I-cyclopropyl-6-fluoro-1,4-dihydro-4-oxo-7-(I-piperazinyl)-3-quinolinecarboxylic acid], in series [1], the antibacterial activity result is “wide range antibacterial activity”. Besides, in series [2], the “antibacterial action versus Norfloxacin and Peifloxacin” value was “better than other known derivatives”. For the same molecule, the “antibacterial action versus Penicillin kinds of antibiotic” value in the series on Streptococcus SPP. is “less than Penicillin kinds of antibiotic”.
